Assays:
[1] = test system: Staphylococcus aureus,strain 209 P- ATCC 6538 P; assay: Bacteriostatic activity in vitro (dilution method); type: cell-based; details: nutrient broth
[2] = test system: Staphylococcus aureus,Smith strain; assay: Bacteriostatic activity in vitro (dilution method); type: cell-based; details: nutrient broth
[3] = test system: Sarcina lutea - ATCC 9341; assay: Bacteriostatic activity in vitro (dilution method); type: cell-based; details: nutrient broth
[4] = test system: Streptococcus faecalis - ATCC 8043; assay: Bacteriostatic activity in vitro (dilution method); type: cell-based; details: nutrient broth
[5] = test system: Streptococcus pyogenes haemolyticus, Dig 7 strain (Institut Pasteur); assay: Bacteriostatic activity in vitro (dilution method); type: cell-based; details: nutrient broth
[6] = test system: Diplococcus pneumoniae, Til strain (Institut Pasteur); assay: Bacteriostatic activity in vitro (dilution method); type: cell-based; details: nutrient broth
[7] = test system: Neisseria catarrhalis (A 152, Institut Pasteur); assay: Bacteriostatic activity in vitro (dilution method); type: cell-based; details: nutrient broth
[8] = test system: Bacillus subtilis - ATCC 6633; assay: Bacteriostatic activity in vitro (dilution method); type: cell-based; details: nutrient broth
[9] = test system: Bacillus cereus - ATCC 6630; assay: Bacteriostatic activity in vitro (dilution method); type: cell-based; details: nutrient broth
[10] = test system: Mycobacterium species - ATCC 607; assay: Bacteriostatic activity in vitro (dilution method); type: cell-based; details: nutrient broth
[11] = test system: Shigella dysenteriae, Shiga L (Institut Pasteur); type: cell-based; details: nutrient broth
[12] = test system: Salmonella schottmuelleri (paratyphi B), Fougenc strain (Institut Pasteur); assay: Bacteriostatic activity in vitro (dilution method); type: cell-based; details: nutrient broth
[13] = test system: Proteus vulgaris; assay: Bacteriostatic activity in vitro (dilution method); type: cell-based; details: nutrient broth
[14] = test system: Pseudomonas aeruginosa; assay: Bacteriostatic activity in vitro (dilution method); type: cell-based; details: nutrient broth
[15] = test system: mice; assay: Acute toxicity in mice; type: in vivo; details: orally, single dose
Procedure: Acute toxicity: in mice, the 50% lethal dose (LD50) is 90 mg/kg given orally in a single dose.

[16] = test system: chickens; assay: Toxicity of medicated feed in chickens (non-toxic concentrations); type: in vivo; details: between 0.005% and 0.04% by weight in feed
Procedure: Anti-coccidial activity: the anti-coccidial activity was determined in chickens infested in particular with Eimeria tenella and Eimeria acervulina.
The anti-coccidial activity of 37,454 RP (sodium salt), incorporated into chicken feed, manifests itself at non-toxic concentrations of between 0.005% and 0.04% by weight of the sodium salt in the feed.

With `CO[C@H]1CC[C@H](O[C@H]2[C@H](C)[C@@H]([C@H]3CC[C@H]([C@@H]4CC[C@H]([C@@]5(C)OC6(O[C@H](C[C@@H]7O[C@](O)([C@@H](O)C(=O)[O-])[C@@H](C)[C@H](OC)[C@@]7(C)OC)C[C@@H](OC)[C@H]6C)[C@H](C)[C@H]5OC)O4)O3)O[C@](C)(O)[C@@H]2C)O[C@@H]1C.[Na+]` (stereo partly shown) [37,454 RP (sodium salt)] the Minimum bacteriostatic concentration [1] was 0.6 μg/cc, the Minimum bacteriostatic concentration [2] was 0.8 μg/cc and the Minimum bacteriostatic concentration [3] was 0.9 μg/cc. It also gave a Minimum bacteriostatic concentration [4] of 0.3 μg/cc, a Minimum bacteriostatic concentration [5] of 0.6 μg/cc and a Minimum bacteriostatic concentration [6] of 0.1 μg/cc. For the same molecule, the Minimum bacteriostatic concentration [7] was over 20 μg/cc, the Minimum bacteriostatic concentration [8] was 0.8 μg/cc and the Minimum bacteriostatic concentration [9] was 0.3 μg/cc. It also gave a Minimum bacteriostatic concentration [10] of 10 μg/cc, a Minimum bacteriostatic concentration [11] of over 50 μg/cc and a Minimum bacteriostatic concentration [12] of over 50 μg/cc. The Minimum bacteriostatic concentration [13] was over 50 μg/cc, the Minimum bacteriostatic concentration [14] was over 15 μg/cc and the “50% lethal dose (LD50)” value [15] was 90 mg/kg. The “Toxicity at active feed concentrations” value [16] was “non-toxic”.
